According to EPA's CvTdb concentration-time database:

What was measured:
[1] = test system: Rat; assay: concentration in plasma after dosing; conditions: 18 h; dosed: Gemfibrozil; 50 mg/kg; oral; Male; Sprague-Dawley
[2] = test system: Rat; assay: concentration in plasma after dosing; conditions: 10 min; dosed: Gemfibrozil; 50 mg/kg; oral; Male; Sprague-Dawley
[3] = test system: Rat; assay: concentration in plasma after dosing; conditions: 24 h; dosed: Gemfibrozil; 50 mg/kg; oral; Male; Sprague-Dawley
[4] = test system: Rat; assay: concentration in plasma after dosing; conditions: 6 h; dosed: 2-Methyltetrahydrofuran; 40 mg/kg; iv; Male; Harlan Sprague Dawley
[5] = test system: Rat; assay: concentration in brain after dosing; conditions: 0.5 h; dosed: 2-Methyltetrahydrofuran; 40 mg/kg; iv; Male; Harlan Sprague Dawley
[6] = test system: Rat; assay: concentration in plasma after dosing; conditions: 6 h; dosed: 2-Methyltetrahydrofuran; 40 mg/kg; iv; Male; Harlan Sprague Dawley; remark: listed apart in the source
[7] = test system: Rat; assay: concentration in brain after dosing; conditions: 0.75 h; dosed: 2-Methyltetrahydrofuran; 40 mg/kg; iv; Male; Harlan Sprague Dawley
[8] = test system: Rat; assay: concentration in plasma after dosing; conditions: 4 h; dosed: 2-Methyltetrahydrofuran; 40 mg/kg; iv; Female; Harlan Sprague Dawley
[9] = test system: Rat; assay: concentration in brain after dosing; conditions: 2 h; dosed: 2-Methyltetrahydrofuran; 40 mg/kg; iv; Male; Harlan Sprague Dawley
[10] = test system: Rat; assay: concentration in plasma after dosing; conditions: 0.5 h; dosed: 2-Methyltetrahydrofuran; 40 mg/kg; iv; Male; Harlan Sprague Dawley
[11] = test system: Rat; assay: concentration in plasma after dosing; conditions: 1848 h; dosed: Perfluorooctane Sulfonate; 2 mg/kg; oral; Female; Harlan Sprague Dawley
[12] = test system: Rat; assay: concentration in liver after dosing; conditions: 24 h; dosed: Perfluorooctane Sulfonate; 2 mg/kg; oral; Female; Harlan Sprague Dawley
[13] = test system: Rat; assay: concentration in liver after dosing; conditions: 6 h; dosed: Perfluorooctane Sulfonate; 2 mg/kg; oral; Female; Harlan Sprague Dawley
[14] = test system: Rat; assay: concentration in brain after dosing; conditions: 24 h; dosed: Perfluorooctane Sulfonate; 2 mg/kg; oral; Female; Harlan Sprague Dawley
[15] = test system: Rat; assay: concentration in plasma after dosing; conditions: dosed: Perfluorooctane Sulfonate, 2 mg/kg, iv, Female, F344
[16] = test system: Rat; assay: concentration in liver after dosing; conditions: 6 h; dosed: Perfluorooctane Sulfonate; 20 mg/kg; oral; Male; Harlan Sprague Dawley
[17] = test system: Rat; assay: concentration in kidney after dosing; conditions: 1848 h; dosed: Perfluorooctane Sulfonate; 20 mg/kg; oral; Male; Harlan Sprague Dawley
[18] = test system: Rat; assay: concentration in liver after dosing; conditions: 1848 h; dosed: Perfluorooctane Sulfonate; 20 mg/kg; oral; Male; Harlan Sprague Dawley
[19] = test system: Rat; assay: concentration in plasma after dosing; conditions: 24 h; dosed: Perfluorooctane Sulfonate; 2 mg/kg; oral; Female; Harlan Sprague Dawley
[20] = test system: Rat; assay: concentration in kidney after dosing; conditions: 6 h; dosed: Perfluorohexanoic Acid; 80 mg/kg; oral; Female; Harlan Sprague Dawley
[21] = test system: Rat; assay: concentration in plasma after dosing; conditions: dosed: Perfluorohexanoic Acid, 40 mg/kg, oral, Male, Harlan Sprague Dawley
[22] = test system: Rat; assay: concentration in plasma after dosing; conditions: dosed: Perfluorohexanoic Acid, 40 mg/kg, oral, Male, Harlan Sprague Dawley; remark: listed apart in the source
[23] = test system: Rat; assay: concentration in kidney after dosing; conditions: 1 h; dosed: Perfluorohexanoic Acid; 80 mg/kg; oral; Female; Harlan Sprague Dawley
[24] = test system: Rat; assay: concentration in plasma after dosing; conditions: 0.25 h; dosed: Perfluorohexanoic Acid; 40 mg/kg; iv; Male; F344
[25] = test system: Rat; assay: concentration in kidney after dosing; conditions: 6 h; dosed: Perfluorohexanoic Acid; 80 mg/kg; oral; Male; Harlan Sprague Dawley
[26] = test system: Rat; assay: concentration in brain after dosing; conditions: 1 h; dosed: Perfluorohexanoic Acid; 80 mg/kg; oral; Male; Harlan Sprague Dawley
[27] = test system: Rat; assay: concentration in plasma after dosing; conditions: dosed: Perfluorohexanoic Acid, 40 mg/kg, oral, Male, Harlan Sprague Dawley; remark: listed apart in the source
[28] = test system: Rat; assay: concentration in brain after dosing; conditions: 1 h; dosed: Perfluorohexanoic Acid; 80 mg/kg; oral; Female; Harlan Sprague Dawley
[29] = test system: Rat; assay: concentration in liver after dosing; conditions: 3 h; dosed: Perfluorohexanoic Acid; 80 mg/kg; oral; Female; Harlan Sprague Dawley
[30] = test system: Rat; assay: concentration in plasma after dosing; conditions: 1.5 h; dosed: Perfluorohexanoic Acid; 40 mg/kg; iv; Male; F344
[31] = test system: Rat; assay: concentration in plasma after dosing; conditions: 1.5 h; dosed: Perfluorohexanoic Acid; 40 mg/kg; iv; Male; F344; remark: listed apart in the source
[32] = test system: Rat; assay: concentration in liver after dosing; conditions: 0.5 h; dosed: Perfluorohexanoic Acid; 80 mg/kg; oral; Female; Harlan Sprague Dawley
[33] = test system: Rat; assay: concentration in liver after dosing; conditions: 1 h; dosed: Perfluorohexanoic Acid; 80 mg/kg; oral; Female; Harlan Sprague Dawley
[34] = test system: Rat; assay: concentration in plasma after dosing; conditions: dosed: 678-39-7, 40 mg/kg, iv, Male, F344
[35] = test system: Rat; assay: concentration in liver after dosing; conditions: 12 h; dosed: Fluorotelomer alcohol 8+2; 80 mg/kg; oral; Female; Harlan Sprague Dawley
[36] = test system: Rat; assay: concentration in kidney after dosing; conditions: 6 h; dosed: Fluorotelomer alcohol 8+2; 24 mg/kg; oral; Male; Harlan Sprague Dawley
[37] = test system: Rat; assay: concentration in brain after dosing; conditions: 3 h; dosed: Fluorotelomer alcohol 8+2; 24 mg/kg; oral; Male; Harlan Sprague Dawley
[38] = test system: Rat; assay: concentration in plasma after dosing; conditions: dosed: Fluorotelomer alcohol 8+2, 12 mg/kg, oral, Male, Harlan Sprague Dawley
[39] = test system: Rat; assay: concentration in liver after dosing; conditions: 6 h; dosed: Fluorotelomer alcohol 8+2; 80 mg/kg; oral; Female; Harlan Sprague Dawley
[40] = test system: Rat; assay: concentration in plasma after dosing; conditions: dosed: 678-39-7, 12 mg/kg, iv, Male, F344
[41] = test system: Rat; assay: concentration in brain after dosing; conditions: 1 h; dosed: Fluorotelomer alcohol 8+2; 80 mg/kg; oral; Female; Harlan Sprague Dawley

Cc1ccc(C)c(OCCCC(C)(C)C(=O)O)c1 [Gemfibrozil]
Conditions	concentration in plasma [ng/mL]
[1]	1510
[2]	110000
[3]	846

CC1CCCO1 (stereo not drawn) [2-Methyltetrahydrofuran]
Conditions	concentration in brain [ng/mL]	concentration in plasma [ng/mL]
[4]	–	29.7
[5]	16200	–
[6]	–	16.9
[7]	14400	–
[8]	–	186
[9]	8260	–
[10]	–	25100

O=S(=O)([O-])C(F)(F)C(F)(F)C(F)(F)C(F)(F)C(F)(F)C(F)(F)C(F)(F)C(F)(F)F [Perfluorooctane Sulfonate]
Conditions	concentration in brain [ng/g]	concentration in kidney [ng/g]	concentration in liver [ng/g]	concentration in plasma [ng/mL]
[11]	–	–	–	987
[12]	–	–	23800	–
[13]	–	–	27200	–
[14]	920	–	–	–
[16]	–	–	204000	–
[17]	–	25300	–	–
[18]	–	–	51700	–
[19]	–	–	–	5650

[15]
Conditions	concentration in plasma [ng/mL]
6 h	4560
864 h	1530

O=C(O)C(F)(F)C(F)(F)C(F)(F)C(F)(F)C(F)(F)F [Perfluorohexanoic Acid]
Conditions	concentration in brain [ng/g]	concentration in kidney [ng/g]	concentration in liver [ng/g]	concentration in plasma [ng/mL]
[20]	–	9420	–	–
[23]	–	76600	–	–
[24]	–	–	–	14700
[25]	–	10600	–	–
[26]	2830	–	–	–
[28]	1270	–	–	–
[29]	–	–	8200	–
[30]	–	–	–	320
[31]	–	–	–	175
[32]	–	–	23800	–
[33]	–	–	41600	–

concentration in plasma [ng/mL]
Conditions	0.5 h	3 h	5 min	9 h
[21]	65500	–	–	4960
[22]	–	48700	28800	–
[27]	59900	–	–	9200

O=C(O)CCC(F)(F)C(F)(F)C(F)(F)C(F)(F)C(F)(F)C(F)(F)C(F)(F)F [Fluorotelomer acid 7+3]
concentration in plasma [ng/mL]
Conditions	0.25 h	0.5 h	6 h	9 h
[34]	115	–	2200	–
[38]	152	–	522	–
[40]	–	127	–	159

Conditions	concentration in brain [ng/g]	concentration in kidney [ng/g]	concentration in liver [ng/g]
[35]	–	–	5690
[36]	–	822	–
[37]	440	–	–
[39]	–	–	9210
[41]	277	–	–
